Results published in patent publication US11046697B2, “Compounds and compositions useful for treating disorders related to NTRK” (BLUEPRINT MEDICINES CORPORATION, priority 2015, dated 2021).
Like-named read-outs stand apart in the source and are kept apart here.

How the values were obtained:
[1] = target: T1, wild type NTRK1 enzyme (Homo sapiens, UniProt P04629); assay: NTRK1 Wild Type Assay at 1 mM ATP; type: biochemical; settings: 1 mM ATP; read-out: Enz NTRK1 IC50
T1 construct: purchased BPS Bioscience 40280
Procedure: NTRK1 Wild Type Assay at 1 mM ATP
The reaction was stopped by the addition of 70 μL of Stop buffer (100 mM HEPES pH 7.5, 0.015% Brij 35, 35 mM EDTA and 0.2% of Coating Reagent 3 (Caliper Lifesciences)). The plate was then read on a Caliper EZReader 2 (protocol settings: −1.7 psi, upstream voltage −500, downstream voltage −3000, post sample sip 35s).

[2] = tested on: KM12 wild type colon carcinoma cell line harboring the TPM3-NTRK1 fusion protein; assay: NTRK wild type cellular assay (CellTiter-Glo growth inhibition); type: cell-based; settings: 72 hr, CellTiter-Glo, read-out: KM12 (WT) IC50
Method in brief: (§1)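 KM12 (TPM3-NTRK1 fusion) or KM12 Cliff (G595R) cells at 1000 cells/well in 10% FBS media were dosed with compounds at varying concentrations in duplicate after overnight plating.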

[3] = tested on: KM12 Cliff (G595R) cell line; assay: NTRK G595R mutant cellular assay (CellTiter-Glo growth inhibition); type: cell-based; settings: 72 hr, CellTiter-Glo
Method in brief: as §1

T1 sequence (P04629 440-796 limits assumed): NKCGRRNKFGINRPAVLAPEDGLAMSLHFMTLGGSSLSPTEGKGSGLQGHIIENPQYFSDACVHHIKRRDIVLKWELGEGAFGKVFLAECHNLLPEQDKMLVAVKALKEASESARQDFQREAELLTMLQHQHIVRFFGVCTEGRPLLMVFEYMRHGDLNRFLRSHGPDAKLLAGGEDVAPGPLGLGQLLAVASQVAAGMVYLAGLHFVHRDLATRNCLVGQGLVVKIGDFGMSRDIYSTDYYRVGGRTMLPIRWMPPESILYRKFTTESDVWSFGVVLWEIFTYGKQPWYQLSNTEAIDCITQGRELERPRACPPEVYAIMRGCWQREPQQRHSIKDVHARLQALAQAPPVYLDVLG

| Compound | IC50 [1] [nM] | IC50 [2] [nM] | IC50 ([2]; Homo sapiens, KM12, 72 h) [nM] | IC50 [3] [nM] | IC50 ([3]; Homo sapiens, KM12, 72 h) [nM] |
| --- | --- | --- | --- | --- | --- |
| O=C(c1n[nH]c2ncnc(N[C@H]3[C@H](O)[C@H](O)[C@@H]4C[C@@H]43)c12)N1C[C@@H](F)C[C@@H]1c1cc(F)cc(F)c1F [Compound 220] | < 10 | < 10 | – | < 10 | – |
| CN(Cc1cncc(F)c1)C(=O)c1n[nH]c2ncnc(N[C@@H]3CC[C@@H](O)[C@H]3O)c12 [Compound 5] | 100 to 1000 | – | 100 to 1000 | – | 100 to 1000 |
| O=C(c1n[nH]c2ncnc(N[C@@H]3CCCC(F)(F)[C@H]3O)c12)N1C[C@@H](F)C[C@@H]1c1cncc(F)c1 [Compound 231] | 10 to 100 | – | 10 to 100 | – | 100 to 1000 |
| O=C(c1n[nH]c2ncnc(NC3CCCC(O)C3O)c12)N1CC(F)CC1c1cccc(F)c1F (stereo not drawn) [Compound 193] | < 10 | 10 to 100 | – | 10 to 100 | – |
| O=C(c1n[nH]c2ncnc(N[C@@H]3CCC[C@@H](O)[C@H]3O)c12)N1C[C@@H](F)C[C@@H]1c1cc(F)cc(Cl)c1 [Compound 130] | < 10 | < 10 | – | < 10 | – |
| CC(NC(=O)c1n[nH]c2ncnc(NC3CCC(O)C3O)c12)c1cc(F)ccc1F (stereo not drawn) [Compound 35] | 100 to 1000 | 100 to 1000 | – | > 1000 | – |
| CN(Cc1cc(F)ccc1C(F)(F)F)C(=O)c1n[nH]c2ncnc(NC3COCC(O)C3O)c12 (stereo not drawn) [Compound 209] | < 10 | 10 to 100 | – | 10 to 100 | – |
| N#C[C@H]1C[C@H](c2cc(F)ccc2F)N(C(=O)c2n[nH]c3ncnc(N[C@@H]4COCC[C@H]4O)c23)C1 [Compound 100] | 10 to 100 | – | 10 to 100 | – | 100 to 1000 |
| CN(Cc1cc(Cl)ccc1F)C(=O)c1n[nH]c2ncnc(N[C@@H]3CC[C@@H](O)[C@H]3O)c12 [Compound 148] | < 10 | – | < 10 | – | < 10 |
| O=C(NCc1cc(F)ccc1F)c1n[nH]c2ncnc(N[C@@H]3C[C@@H](F)C[C@H]3O)c12 (relative stereo) [Compound 17] | 10 to 100 | – | 10 to 100 | – | 100 to 1000 |
| O=C(NC(CO)c1cc(F)ccc1F)c1n[nH]c2ncnc(NC3CCCC3O)c12 (stereo not drawn) [Compound 27] | < 10 | 10 to 100 | – | 10 to 100 | – |
| O=C(c1n[nH]c2ncnc(N[C@H]3[C@H](O)[C@H](O)[C@@H]4C[C@@H]43)c12)N1C[C@@H](F)C[C@@H]1c1cc(Cl)ccc1F [Compound 215] | < 10 | < 10 | – | < 10 | – |
| O=C(c1n[nH]c2ncnc(N[C@H]3[C@H](O)[C@H](O)[C@@H]4C[C@@H]43)c12)N1C[C@@H](F)C[C@@H]1c1cccc(F)c1F [Compound 189] | < 10 | < 10 | – | 10 to 100 | – |
| O=C(NCc1cc(F)cc(F)c1F)c1n[nH]c2ncnc(N[C@@H]3CC[C@@H](O)[C@H]3O)c12 [Compound 41] | 10 to 100 | – | 100 to 1000 | – | 100 to 1000 |
| O=C(c1n[nH]c2ncnc(NC3CC(F)CC3O)c12)N1CC(F)CC1c1cc(F)cc(F)c1F (stereo not drawn) [Compound 208] | < 10 | – | < 10 | – | < 10 |
| O=C(NCc1cc(F)ccc1F)c1n[nH]c2ncnc(N[C@@H]3[C@H]4C[C@H]4C[C@H]3O)c12 [Compound 3] | > 1000 | – | > 1000 | – | > 1000 |
| O=C(NCc1cc(F)ccc1F)c1n[nH]c2ncnc(N[C@@H]3CCC[C@H]3O)c12 [Compound 1] | 10 to 100 | – | 10 to 100 | – | 10 to 100 |
| O=C(c1n[nH]c2ncnc(NC3CC(F)CC3O)c12)N1CC(F)CC1c1cc(F)cc(F)c1 (stereo not drawn) [Compound 178] | < 10 | 10 to 100 | – | 10 to 100 | – |
| O=C(c1n[nH]c2ncnc(N[C@@H]3CC[C@@H](O)[C@H]3O)c12)N1C[C@@H](F)C[C@@H]1c1cc(F)cc(F)c1F [Compound 206] | < 10 | < 10 | – | < 10 | – |
| O=C(c1n[nH]c2ncnc(N[C@H]3[C@H](O)[C@H](O)[C@@H]4C[C@@H]43)c12)N1C[C@@H](F)C[C@@H]1c1cc(F)cnc1F [Compound 216] | < 10 | < 10 | – | < 10 | – |
| O=C(NCc1cc(F)cc(F)c1F)c1n[nH]c2ncnc(N[C@@H]3COCC[C@H]3O)c12 [Compound 40] | 10 to 100 | 100 to 1000 | – | 100 to 1000 | – |
| O=C(NCc1cc(F)ccc1F)c1n[nH]c2ncnc(NC3CCC(O)C3O)c12 (stereo not drawn) [Compound 9] | 10 to 100 | 10 to 100 | – | 100 to 1000 | – |
| O=C(c1n[nH]c2ncnc(N[C@@H]3C[C@@H](C(F)F)C[C@H]3O)c12)N1C[C@@H](F)C[C@@H]1c1cncc(F)c1 [Compound 203] | < 10 | – | < 10 | – | < 10 |
| N#Cc1cc(F)cc([C@H]2C[C@H](F)CN2C(=O)c2n[nH]c3ncnc(N[C@@H]4CCCC(F)(F)[C@H]4O)c23)c1 [Compound 230] | < 10 | – | 10 to 100 | – | 10 to 100 |
| O=C(c1n[nH]c2ncnc(N[C@@H]3CCOC[C@H]3O)c12)N1C[C@@H](F)C[C@@H]1c1cncc(F)c1 [Compound 73] | < 10 | – | < 10 | – | 10 to 100 |

Further lines, with some results ahead:

| IC50 [1] [nM] | IC50 [2] [nM] | IC50 ([2]; Homo sapiens, KM12, 72 h) [nM] | Compound | IC50 [3] [nM] | IC50 ([3]; Homo sapiens, KM12, 72 h) [nM] |
| --- | --- | --- | --- | --- | --- |
| < 10 | < 10 | – | COc1c(F)cc(F)cc1[C@H]1C[C@H](F)CN1C(=O)c1n[nH]c2ncnc(N[C@H]3[C@H](O)[C@H](O)[C@@H]4C[C@@H]43)c12 [Compound 233] | < 10 | – |
| 100 to 1000 | 100 to 1000 | – | CN(Cc1ccccc1)C(=O)c1n[nH]c2ncnc(N[C@@H]3CC[C@@H](O)[C@H]3O)c12 [Compound 131] | 100 to 1000 | – |
| 10 to 100 | 10 to 100 | – | CN(Cc1cc(F)cnc1Cl)C(=O)c1n[nH]c2ncnc(NC3CC(F)CC3O)c12 (stereo not drawn) [Compound 151] | 10 to 100 | – |
| < 10 | – | < 10 | CN(Cc1cc(F)ccc1C(F)(F)F)C(=O)c1n[nH]c2ncnc(N[C@@H]3CC[C@@H](O)[C@H]3O)c12 [Compound 99] | – | < 10 |
| < 10 | < 10 | – | O=C(c1n[nH]c2ncnc(NC3CCOCC3O)c12)N1CC(F)CC1c1cc(F)cc(F)c1F (stereo not drawn) [Compound 205] | < 10 | – |
| < 10 | – | 10 to 100 | [2H]C([2H])([2H])N(Cc1cc(F)ccc1F)C(=O)c1n[nH]c2ncnc(N[C@@H]3COCC[C@H]3O)c12 [Compound 39] | – | 10 to 100 |
| 10 to 100 | 10 to 100 | – | O=C(c1n[nH]c2ncnc(N[C@@H]3C=C[C@@H](O)[C@H]3O)c12)N1C[C@@H](F)C[C@@H]1c1cc(F)cnc1Cl [Compound 194] | 10 to 100 | – |
| 10 to 100 | < 10 | – | O=C(c1n[nH]c2ncnc(N[C@@H]3C=C[C@@H](O)[C@H]3O)c12)N1C[C@@H](F)C[C@@H]1c1cc(F)cc(F)c1F [Compound 199] | < 10 | – |
| 10 to 100 | 10 to 100 | – | O=C(NCc1cc(F)ccc1F)c1n[nH]c2ncnc(NC3CC(O)CC3O)c12 (stereo not drawn) [Compound 13] | 100 to 1000 | – |
| 100 to 1000 | – | > 1000 | N#Cc1cc(F)cc(CNC(=O)c2n[nH]c3ncnc(N[C@@H]4CC[C@@H](O)[C@H]4O)c23)c1 [Compound 22] | – | > 1000 |
| 10 to 100 | – | 10 to 100 | C[C@@H](NC(=O)c1n[nH]c2ncnc(N[C@@H]3CCC[C@H]3O)c12)c1cc(F)ccc1F [Compound 7] | – | 10 to 100 |
| < 10 | – | 10 to 100 | O=C(c1n[nH]c2ncnc(N[C@@H]3CCOC[C@H]3O)c12)N1C[C@@H](F)C[C@@H]1c1cc(F)cnc1Cl [Compound 202] | – | 10 to 100 |
| < 10 | – | < 10 | O=C(c1n[nH]c2ncnc(N[C@@H]3C[C@@H](C(F)F)[C@@H](O)[C@H]3O)c12)N1C[C@@H](F)C[C@@H]1c1cc(F)ccc1F [Compound 114] | – | < 10 |
